Test results taken from patent US10040893B2, “Polymeric photoinitiators and photoinitiator monomers” (Coloplast A/S, priority 2012, dated 2018).

Legend:
[1] = Qualitative solubility comparison of monomeric photoinitiators; type: physicochemical; details: photoinitiator monomer; concentration and temperature printed in the cell

water solubility [1]	UV absorption wavelength (350-400 nm band region) [nm]	E1^1 (extinction coefficient of absorption) (at the stated absorption wavelength)	SMILES
sparingly soluble at 100 °C			O=c1c2ccccc2sc2c(OCCCN(CCO)CCO)ccc(Cl)c12 [Preparatory Example 2, 4-{3-[bis(2-hydroxyethyl)amino]propoxy}-1-chloro-9H-thioxanthen-9-one]
	387	175	CCCOc1ccc(Cl)c2c(=O)c3ccccc3sc12 [1-chloro-4-propoxy thioxanthone]
sparingly soluble at 100 °C			O=C(c1ccccc1)c1ccc(OCCCN(CCO)CCO)cc1 [Preparatory Example 1, 4-{3-[bis(2-hydroxyethyl)amino]propoxy}benzophenone]
